This passage reports EC50 results from patent publication US11420976B2 (priority 2020, dated 2022).

A value given as a limit tells only on which side of the number the result lay.

For one test, the system named is Human RSV-A (“Long” strain). The experiment in a line: RSV-A assay (CPE, ATPlite readout in Hep-2 cells). Type of test: cell-based. The conditions noted are these: human respiratory syncytial virus, 120 h; Hep-2 cells, MOI 0.1, 5-day incubation, ATPlite; read-out: Human RSV-A (“Long” strain) EC50. An excerpt:
Hep-2 cells, (originally derived from tumors grown in irradiated-cortisonised weanling rats that had been injected with epidermoid carcinoma tissue from a person's larynx, but later found to be indistinguishable from HeLa cells by PCR DNA analysis), were used for the culturing of genotype A, “Long” strain RSV. Flasks were inoculated with RSV and viral stocks were collected once cytopathic effect (CPE) was greater than 90%. Viral stocks in 25% sucrose media were snap frozen using liquid nitrogen to increase viral stability. Viral stock titers were quantified by tissue culture infectious dose 50% (TCID50) using 8,000 cells per well and 3-fold viral dilutions across a 96-well plate, cultured for 4 days. Viral stock titers were also quantified by a plaque forming unit assay, as described elsewhere.
Following extensive parameter testing, the final assay is run as follows: Hep-2 cells are seeded into the inner 60 wells of a 96-well plate at 8,000 cells per well in a volume of 50 μL using Growth Media (DMEM without phenol red, 1% L-Glut, 1% Penn/Strep, 1% nonessential amino acids, 10% heat-inactivated FBS). 2-fold serial dilutions of control and test compounds are added to the wells in duplicate in a total volume of 25 μL. Viral stock is then added to the wells at a multiplicity of infection (MOI) of 0.1 in a volume of 25 μL, bringing the total volume of each well to 100 μL. The MOI is calculated using the PFU/mL, or TCID50 if unavailable. Each 96-well plate has a control column of 6 wells with cells and virus but no compound (negative control, max CPE), a column with cells but no compound or virus (positive control, minimum CPE), and a column with no cells or virus or compound (background plate/reagent control). The control wells with cells but no virus are given an additional […], of growth media containing an equal quantity of sucrose as those wells receiving the viral stock in order to keep consistent in media and volume conditions. The outer wells of the plate are filled with 125 μL of moat media (DMEM, 1% Penn/Strep) to act as a thermal and evaporative moat around the test wells. Following a 5-day incubation period, the plates are read using ATPlite (50 uL added per well), which quantifies the amount of ATP (a measure of cell health) present in each well. Assay plates are read using the Envision luminometer. […] EC50 ranges are as follows: A<0.2 μM; B≥0.2 μM.
For orientation: In ATP-based viability assays light output follows the ATP content of the culture.
By EC50 is commonly meant the concentration that produces a half-maximal response. For `COc1cc(C(=O)NC[C@@](O)(c2cc3c(c(-c4ccc(F)cc4)n2)OC[C@@]3(N)C(F)(F)F)C(F)(F)F)ccc1OC1CC1` [Example 2, N—((R)-2-((R)-3-amino-7-(4-fluorophenyl)-3-(trifluoromethyl)-2,3-dihydrofuro[2,3-c]pyridin-5-yl)-3,3,3-trifluoro-2-hydroxypropyl)-4-cyclopropoxy-3-methoxybenzamide], the half-maximal effective concentration (EC50) is over 200 nM. On the same count and under the same terms, under `COc1cc(C(=O)NC[C@](O)(c2cc3c(c(-c4ccc(F)cc4)n2)OC[C@@]3(N)C(F)(F)F)C(C)(C)C)ccc1OC1CC1` [Example 12, N—((S)-2-((R)-3-amino-7-(4-fluorophenyl)-3-(trifluoromethyl)-2,3-dihydrofuro[2,3-c]pyridin-5-yl)-2-hydroxy-3,3-dimethylbutyl)-4-cyclopropoxy-3-methoxybenzamide] stands over 200 nM; under `COc1cc(C(=O)NC[C@](O)(c2cc3c(c(-c4ccc(F)cc4)n2)OC[C@@]3(NC(=O)CO)C(F)(F)F)C(F)(F)F)ccc1OC1CC1` [Example 14, 4-cyclopropoxy-3-methoxy-N—((S)-3,3,3-trifluoro-2-((R)-7-(4-fluorophenyl)-3-(2-hydroxyacetamido)-3-(trifluoromethyl)-2,3-dihydrofuro[2,3-c]pyridin-5-yl)-2-hydroxypropyl)benzamide], under 200 nM. On the same count and under the same terms, the figure for `C[C@](O)(CNC(=O)c1cc(OC2CC2)c2ncccc2c1)c1cc2c(c(-c3ccc(F)cc3)n1)OC[C@@]2(N)C(F)(F)F` [Example 16, N—((S)-2-((R)-3-amino-7-(4-fluorophenyl)-3-(trifluoromethyl)-2,3-dihydrofuro[2,3-c]pyridin-5-yl)-2-hydroxypropyl)-8-cyclopropoxyquinoline-6-carboxamide] is under 200 nM; for `COc1cc(C(=O)NC[C@](C)(O)c2cc3c(c(-c4ccc(F)cc4)n2)OC[C@@]3(N)C(F)(F)F)cc2cccnc12` [Example 17, N—((S)-2-((R)-3-amino-7-(4-fluorophenyl)-3-(trifluoromethyl)-2,3-dihydrofuro[2,3-c]pyridin-5-yl)-2-hydroxypropyl)-8-methoxyquinoline-6-carboxamide] it is under 200 nM. Regarding `C[C@](O)(CNC(=O)c1ccc(OC2CC2)c(-c2cccnc2)c1)c1cc2c(c(-c3ccc(F)cc3)n1)OC[C@@]2(N)C(F)(F)F` [Example 18, N—((S)-2-((R)-3-amino-7-(4-fluorophenyl)-3-(trifluoromethyl)-2,3-dihydrofuro[2,3-c]pyridin-5-yl)-2-hydroxypropyl)-4-cyclopropoxy-3-(pyridin-3-yl)benzamide], the concentration for a half-maximal effect (EC50) was under 200 nM. In the case of `COc1cc(C(=O)NC[C@](O)(c2cc3c(c(-c4ccc(F)cc4)n2)OC[C@@]3(N)C(F)(F)F)C(F)(F)F)ccc1OCCO` [Example 31], the EC50 is over 200 nM. As for `COc1cc(C(=O)NC[C@@](O)(c2cc3c(c(-c4ccc(F)cc4)n2)OC[C@]3(N)C(F)(F)F)C(F)(F)F)ccc1OCCO` [Example 32], the concentration giving a half-maximal response (EC50) is over 200 nM. Turning to `COc1cc(C(=O)NC[C@](O)(c2cc3c(c(-c4ccc(F)cc4)n2)OC[C@]3(N)C(F)(F)F)C(F)(F)F)ccc1OCCO` [Example 33], the EC50 was over 200 nM. Still for that read-out and setting: under `COc1ccc(C(=O)NC[C@](O)(c2cc3c(c(-c4ccc(F)cc4)n2)OC[C@@]3(N)C(F)(F)F)C(F)(F)F)cc1OC` [Example 34] stands over 200 nM; under `COc1cnc(C(=O)NC[C@](O)(c2cc3c(c(-c4ccc(F)cc4)n2)OC[C@@]3(N)C(F)(F)F)C(F)(F)F)cc1OC` [Example 35], over 200 nM.

As for `COc1cc(C(=O)NC[C@](O)(c2cc3c(c(-c4ccc(F)cc4)n2)OC[C@@]3(N)C(F)(F)F)C(F)(F)F)ccc1OCC(C)C` [Example 36], the EC50 was over 200 nM.

Regarding `COCCOc1ccc(C(=O)NC[C@](O)(c2cc3c(c(-c4ccc(F)cc4)n2)OC[C@@]3(N)C(F)(F)F)C(F)(F)F)cc1OC` [Example 37], the EC50 was over 200 nM.

Regarding `COc1cc(F)c(C(=O)NC[C@](O)(c2cc3c(c(-c4ccc(F)cc4)n2)OC[C@@]3(N)C(F)(F)F)C(F)(F)F)cc1OC` [Example 38], the EC50 is over 200 nM. The same measure, in the same setting: under `COc1cc(C(=O)NC[C@](O)(c2cc3c(c(-c4ccc(F)cc4)n2)OC[C@@]3(N)C(F)(F)F)C(F)(F)F)cc(F)c1OC1CC1` [Example 39] stands over 200 nM; under `COc1cc(C(=O)NC[C@](O)(c2cc3c(c(-c4ccc(F)cc4)n2)OC[C@@]3(N)C(F)(F)F)C(F)(F)F)nc2ccccc12` [Example 40], over 200 nM.

In the case of `COc1cccc2cc(C(=O)NC[C@](O)(c3cc4c(c(-c5ccc(F)cc5)n3)OC[C@@]4(N)C(F)(F)F)C(F)(F)F)cnc12` [Example 41], the EC50 is over 200 nM. `COc1cc(C(=O)NC[C@](O)(c2cc3c(c(-c4ccc(F)cc4)n2)OC[C@@]3(N)C(F)(F)F)C(F)(F)F)ccc1C(F)(F)F` [Example 42]: the concentration for a half-maximal effect (EC50) was over 200 nM. The same measure, in the same setting: the figure for `COc1ccc2nc(C(=O)NC[C@](O)(c3cc4c(c(-c5ccc(F)cc5)n3)OC[C@@]4(N)C(F)(F)F)C(F)(F)F)cc(OC)c2c1` [Example 43] is over 200 nM; for `COC(=O)N[C@@]1(C(F)(F)F)COc2c1cc([C@@](O)(CNC(=O)c1ccc(OC3CC3)c(OC)c1)C(F)(F)F)nc2-c1ccc(F)cc1` [Example 44] it is over 200 nM; for `CC(C)(C)S(=O)(=O)N[C@@]1(C(F)(F)F)COc2c1cc([C@@](C)(O)CNC(=O)c1cc(OC3CC3)c3ncccc3c1)nc2-c1ccc(F)cc1` [Example 45] it is over 200 nM. Regarding `COc1cc(C(=O)NC[C@](C)(O)c2cc3c(c(-c4ccc(F)cc4)n2)OC[C@@]3(NS(=O)(=O)C(C)(C)C)C(F)(F)F)cc2cccnc12` [Example 46], the EC50 is over 200 nM. For the compound `COC[C@](O)(CNC(=O)c1cc(OC2CC2)c2ncccc2c1)c1cc2c(c(-c3ccc(F)cc3)n1)OC[C@@]2(N)C(F)(F)F` [Example 50, N—((S)-2-((R)-3-amino-7-(4-fluorophenyl)-3-(trifluoromethyl)-2,3-dihydrofuro[2,3-c]pyridin-5-yl)-2-hydroxy-3-methoxypropyl)-8-cyclopropoxyquinoline-6-carboxamide], the concentration giving a half-maximal response (EC50) is under 200 nM. Still for that read-out and setting: the figure for `Nc1nc2ccc(C(=O)NC[C@](O)(c3cc4c(c(-c5ccc(F)cc5)n3)OC[C@@]4(N)C(F)(F)F)C3CC3)cc2s1` [Example 52, 2-amino-N—((S)-2-((R)-3-amino-7-(4-fluorophenyl)-3-(trifluoromethyl)-2,3-dihydrofuro[2,3-c]pyridin-5-yl)-2-cyclopropyl-2-hydroxyethyl)benzo[d]thiazole-6-carboxamide] is under 200 nM. The same measure, in the same setting: under `COc1cc(C(=O)NC[C@](O)(c2cc3c(c(-c4ccc(F)cc4)n2)OC[C@@]3(N)C(F)(F)F)C2CC2)cc2sc(N)nc12` [Example 53, 2-amino-N—((S)-2-((R)-3-amino-7-(4-fluorophenyl)-3-(trifluoromethyl)-2,3-dihydrofuro[2,3-c]pyridin-5-yl)-2-cyclopropyl-2-hydroxyethyl)-4-methoxybenzo[d]thiazole-6-carboxamide] stands under 200 nM. On the same count and under the same terms, under `Nc1nc2c(F)cc(C(=O)NC[C@](O)(c3cc4c(c(-c5ccc(F)cc5)n3)OC[C@@]4(N)C(F)(F)F)C3CC3)cc2s1` [Example 54, 2-amino-N—((S)-2-((R)-3-amino-7-(4-fluorophenyl)-3-(trifluoromethyl)-2,3-dihydrofuro[2,3-c]pyridin-5-yl)-2-cyclopropyl-2-hydroxyethyl)-4-fluorobenzo[d]thiazole-6-carboxamide] stands under 200 nM.

The same test, now with this note: human respiratory syncytial virus, HEp-2, 120 h, read-out: Human RSV-A (“Long” strain) EC50.
`COC(=O)N[C@@]1(C(F)(F)F)COc2c1cc([C@@](C)(O)CNC(=O)c1ccc(OC3CC3)c(OC)c1)nc2-c1ccc(F)cc1` [Example 15, methyl ((R)-5-((S)-1-(4-cyclopropoxy-3-methoxybenzamido)-2-hydroxypropan-2-yl)-7-(4-fluorophenyl)-3-(trifluoromethyl)-2,3-dihydrofuro[2,3-c]pyridin-3-yl)carbamate]: the EC50 is under 200 nM.

Regarding `COc1cc(C(=O)NC[C@](C)(O)c2cc3c(c(-c4ccc(F)cc4)n2)OC[C@@]3(NC(=N)NC#N)C(F)(F)F)ccc1OC1CC1` [Example 21, N—((S)-2-((R)-3-(3-cyanoguanidino)-7-(4-fluorophenyl)-3-(trifluoromethyl)-2,3-dihydrofuro[2,3-c]pyridin-5-yl)-2-hydroxypropyl)-4-cyclopropoxy-3-methoxybenzamide], the EC50 was under 200 nM.
